Measured values from US20100261690A1, “NOVEL COMBINATIONS” (ASTRAZENECA R&D, priority 2009, published 2010).

Tested on: LPS-induced TNFα production in human peripheral blood mononuclear cells (PBMCs)
Assay: Inhibition of LPS-induced TNFα production in human peripheral blood mononuclear cells (AlphaLISA)
Format: cell-based
Conditions: PBMC
Experimental: Inhibition of Lipopolysaccharride (LPS)-Induced TNFα Production in Human Peripheral Blood Mononuclear Cells
Human isolated peripheral blood mononuclear cells (PBMCs) were pre-incubated with a range of concentrations of the GR agonist (1R,3aS,3bS,10aR,10bS,11S,12aS)-1-{[(cyanomethyl)sulfanyl]carbonyl}-7-(4-fluorophenyl)-11-hydroxy-10a,12a-dimethyl-1,2,3,3a,3b,4,5,7,10,10a,10b,11,12,12a-tetradecahydrocyclopenta[5,6]naphtho[1,2-f]indazol-1-yl furan-2-carboxylate (Compound A), alone or in the presence of a range of concentrations of a second compound with a distinct pharmacological activity for 45 minutes at 37° C. After the pre-incubation period, the cells were then incubated with LPS (5 ng/mL) for 18 hr at 37° C. to induce TNFα production. The total assay volume was 200 μL. At the end of the incubation period, 10 μL of the culture supernatant diluted 1:5 was analysed to quantify the TNFα released using AlphaLISA (PerkinElmer). The fluorescence was detected on an EnVision Alphareader. Inhibition curves were fitted using a 4-parameter logistic equation in a non-linear curve fitting routine and activity was expressed as pIC50.
In each table, the data represents the mean of two separate experiments using PBMC from healthy blood donors (n=2).

Structure (SMILES): C[C@]12Cc3cnn(-c4ccc(F)cc4)c3C=C1CC[C@@H]1[C@@H]2[C@@H](O)C[C@@]2(C)[C@H]1CC[C@]2(OC(=O)c1ccco1)C(=O)SCC#N [Compound A, (1R,3aS,3bS,10aR,10bS,11S,12aS)-1-{[(cyanomethyl)sulfanyl]carbonyl}-7-(4-fluorophenyl)-11-hydroxy-10a,12a-dimethyl-1,2,3,3a,3b,4,5,7,10,10a,10b,11,12,12a-tetradecahydrocyclopenta[5,6]naphtho[1,2-f]indazol-1-yl furan-2-carboxylate]
- IC50 (read-out: pIC50 for inhibition of LPS-induced TNFα production from human PBMC (converted)): 0.708 nM

Structure (SMILES): CNCCOc1ccccc1C1(Nc2nccn(-c3cc(C(=O)NC4CC4)cc(F)c3C)c2=O)CC1 [Compound E, N-cyclopropyl-3-fluoro-4-methyl-5-{3-[(1-{2-[2-(methylamino)ethoxy]phenyl}cyclopropyl)amino]-2-oxopyrazin-1(2H)-yl}benzamide]
- inhibition at 1 µM (Compound A 1000 nM in combination with the listed second compound at 1 μM, mean n=2, read-out: % inhibition @ 1000 nM (maximal inhibition)): 99.4%
